Series [1] concerns ATF3, CDKN1A and GADD45A expression in TK6 cells. In words: qRT-PCR indicator stress gene panel, dose optimization. The series is classed as cell-based, human. As to conditions: for transcriptional response of the indicator genes at a later time point: later than the 4 h time point. The method, then: Dose optimization: For some assays, a sufficient concentration of the test agent is required to trigger a measureable transcriptional response; such concentrations may differ from other toxicological endpoints. Therefore, to determine an appropriate concentration for transcriptomics profiling, a dose-range finder experiment was performed for all test compounds as described in Li et al. (2015). Six concentrations of each agent were used for assessment of mRNA changes in three indicator genes (ATF 3, CDKNIA, and GADD45A) by qRT-PCR. The concentration for each agent showing the strongest induction of the indicator genes was then selected. In addition, concordance of responses in the indicator genes was confirmed prior to pooling samples for microarray analysis. If none of the indicator genes were induced in concentration-setting experiments, the IC50 was selected for the microarray analysis. The IC50 value was determined using a standard MTT assay at 24 hr using 10 concentrations and 3 replicates. Based on this cytotoxicity assay, the selected concentrations for microarray analysis were not overtly cytotoxic for any test agent (FIG. 2). If there was neither cytotoxicity nor induction of expression changes in the gene panel, a concentration of 1 mM was used for microarray analysis, as per the revised ICHS2(R1) guidance on genotoxicity testing of pharmaceuticals (ICHS2(R1) (2012) Guidance for Industry: S2(R1) Genotoxicity testing and data interpretation for pharmaceuticals intended for human use. US Department of Health and Human Services, Food and Drug Administration http://www.ich.org/fileadmin/Public_Web_Site/ICH_Products/Guidelines/Safety/S2_R1/Step4/S2R1_Step4.pdf). Selection of a single concentration and pooling replicate samples for microarray analysis (described below) is specific to biomarker development and validation, where multiple compounds were used in each class; future application in substance testing should be undertaken using a dose-response design with samples in triplicate (Buick et al., 2017).

Series [2] deals with TGx-DDI biomarker genes in TK6 cells. The experiment in a line: TGx-DDI transcriptomic biomarker classification by microarray. The series is classed as cell-based, human. Conditions: for TGx-DDI classification, overall call (DDI if positive in any of 2DC, PCA, PA): TK6 cells, 4 h, single selected concentration; for TGx-DDI classification by 2DC and/or PCA: DDI branch in 2DC or negative PC1 = DDI; for TGx-DDI prediction by probability analysis (PA): DDI call based on p>0.9. An excerpt: Microarray procedures: RNA samples from the concentration-setting experiments of each compound at their selected concentrations were pooled together and analyzed using human whole genome expression long-nucleotide probe microarrays (60 nucleotide long, Agilent Technologies) microarray (Li et al., 2015). […] Each experiment was run on two arrays, and on each array both treated and reference (vehicle control) samples were hybridized in a dye-swap design. Specifically, the reference and treatment samples were labeled with two different fluorescence dyes, Cy3 and Cy5, and then both samples were hybridized onto one array. To reduce the effects associated with different labeling efficiencies, a two-color dye-swapping configuration was used. The results from these two arrays were combined for statistical analysis.
TGx-DDI transcriptomic biomarker evaluation: Following the dose determination, microarray analysis was performed for each test compound. RNAs from three replicates in the concentration-setting experiment were pooled together and used for microarray analysis. Cisplatin and ionizing radiation were used in parallel during each experiment as positive controls and to assess batch variation. The TGx-DDI transcriptomic biomarker panel was used to classify each chemical as DDI or non-DDI using two-dimensional clustering (2DC), principal component analysis (PCA), and probability analysis (PA). Hierarchical clustering and PCA were used as an initial unsupervised method to explore the data.
The TGx-DDI heatmap for chemicals in all five classes. PA, PCA, and 2DC results using the TGx-DDI biomarker for validation chemicals were generated. In order to decrease the probability of false negatives, a three-pronged approach was used. A chemical was classified as DDI if it gave a positive call in any one of the TGx-DDI biomarker analyses described in the paragraph above (2DC, PCA or PA prediction).

The subject of the next series is TK6 cells. The experiment in a line: MTT cell viability assay. The series is classed as cell-based, human. As to conditions: selected concentration, 4 hr treatment plus 20 hr recovery. The method, then: Dose optimization: For some assays, a sufficient concentration of the test agent is required to trigger a measureable transcriptional response; such concentrations may differ from other toxicological endpoints. Therefore, to determine an appropriate concentration for transcriptomics profiling, a dose-range finder experiment was performed for all test compounds as described in Li et al. (2015). Six concentrations of each agent were used for assessment of mRNA changes in three indicator genes (ATF 3, CDKNIA, and GADD45A) by qRT-PCR. The concentration for each agent showing the strongest induction of the indicator genes was then selected. In addition, concordance of responses in the indicator genes was confirmed prior to pooling samples for microarray analysis. If none of the indicator genes were induced in concentration-setting experiments, the IC50 was selected for the microarray analysis. The IC50 value was determined using a standard MTT assay at 24 hr using 10 concentrations and 3 replicates. Based on this cytotoxicity assay, the selected concentrations for microarray analysis were not overtly cytotoxic for any test agent (FIG. 2). Based on this cytotoxicity assay, the selected doses for microarray analysis were not overtly cytotoxic. […]
(In general: Formazan colour is commonly taken as a measure of viable cells.)

In series [3] the test system is TGx-DDI biomarker genes in TK6 cells. The experiment in a line: TGx-DDI nCounter assay (direct digital counting). As to conditions: 100 ng total RNA, same samples as microarray; 2DC, PCA, PA.
Experimental: Briefly, exponentially growing cells were treated with the indicated chemical agent for 4 h over a broad dose range, cells were harvested, and total RNA was isolated. […] For cell viability assays, at the end of 4 hr treatment, medium was removed from cells, and cells were washed and recovered in fresh medium for 20 hr. Cell viability was measured at the end of recovery period using an MTT Assay kit (Cayman Chemical, Ann Arbor, Mich.).
TGx-DDI nCounter Assay: The nCounter™ assay was performed on 100 ng of RNA that had previously been pooled and used in microarray analysis. […] In brief, optimized sequences for genes in the TGx-DDI panel were custom-designed and manufactured by NanoString. The CodeSet includes the TGx-DDI gene-set and eight housekeeping genes. Housekeeping genes were selected based on stability and detectable expression levels, including G6PD, GUSB, HPRT1, LDHA, NONO, PGK1, PPIH, and TFRC.
To validate the sensitivity and specificity of DDI prediction by TGx-DDI nCounter assay, 38 out of 45 testing compounds, including Class 1, 2, 4 and 5, were evaluated using nCounter technology. nCounter assays were performed on 100 ng of total RNA, the same RNA samples that were used in microarray analysis. Following the categorization guideline described already for microarrays, compounds were classified as DDI or non-DDI based on nCounter assay data.

“Also recorded” adds a separate entry of the source.

As for `Sc1ncnc2nc[nH]c12` [6-mercaptopurine], the “transcriptional response of the indicator genes at a later time point” value in series [1] is “stronger transcriptional response”. In series [2], the “TGx-DDI classification, overall call (DDI if positive in any of 2DC, PCA, PA)” value (shortened to “TGx-DDI classification, overall call”) was “non-DDI”.

In the case of bleomycin, the “decline (reduction) in cell viability at 24 hr” value in the series with TK6 cells is on record as 80%.

As to `CC/C(=C(/CC)c1ccc(O)cc1)c1ccc(O)cc1` [diethylstilbestrol], in series [2], the “TGx-DDI classification by 2DC and/or PCA” value is on record as “positive”; the “TGx-DDI prediction by probability analysis (PA)” value (“TGx-DDI prediction” below) is “non-DDI”; the “TGx-DDI classification, overall call” value is given as “genotoxic calls”.

On to `COS(C)(=O)=O` [MMS], for which, in series [2] (reproducibility check with training-set agents, selected concentration), the “clustering by 2DC using the TGx-DDI biomarker” value is reported as “clustered with the genotoxic agents”.

Turning to `O=c1[nH]cc(F)c(=O)[nH]1` [5-FU], the “TGx-DDI classification, overall call” value in series [2] is on record as “DDI”.

For the compound `CCn1cc(C(=O)O)c(=O)c2cc(F)c(N3CCNCC3)cc21` [norfloxacin], the “TGx-DDI classification, overall call” value in series [2] is on record as “non-DDI”.

Consider `Oc1ccc(O)cc1` [hydroquinone], for which, in series [2], the “TGx-DDI classification by 2DC and/or PCA” value is given as “DDI agents; also recorded: positive” and the “TGx-DDI prediction” value is recorded as “non-DDI”. In addition, in series [3], the “TGx-DDI classification by nCounter” value is recorded as “consistency among three classification methods”.

For `Nc1nc2[nH]cnc2c(=S)[nH]1` [6-TG], the “TGx-DDI classification, overall call” value in series [2] was “DDI”.

In the case of `CS(=O)(=O)OCCCCOS(C)(=O)=O` [busulfan], the “GADD45A induction relative to vehicle-treated control cells” value in series [1] (TK6 cells, 4 h treatment, selected concentration) is “at least 2 fold”. The “induction of stress genes at higher concentrations” value in series [1] (concentrations above the selected one) is reported as “did not cause greater induction”. In series [2], the “TGx-DDI classification by 2DC and/or PCA” value was “DDI agents; also recorded: positive” and the “TGx-DDI prediction” value is recorded as “non-DDI”. Further, the “TGx-DDI classification by nCounter” value in series [3] is reported as “consistency among three classification methods”.

As for `Nc1ncn([C@@H]2O[C@H](CO)[C@@H](O)[C@H]2O)c(=O)n1` [5-azacytidine], the “transcriptional response of the indicator genes at a later time point” value in series [1] is on record as “stronger transcriptional response”. Also, the “TGx-DDI classification, overall call” value in series [2] is “non-DDI”.

As for `Cc1nc(Nc2ncc(C(=O)Nc3c(C)cccc3Cl)s2)cc(N2CCN(CCO)CC2)n1` [dasatanib], the “TGx-DDI classification, overall call” value in series [2] is listed as “genotoxic calls”.

In the case of `CCCN(CCc1cccs1)[C@H]1CCc2c(O)cccc2C1` [rotigotin], the “induction of indicator genes ATF3, CDKN1A, GADD45A” value in series [1] (TK6 cells, 4 h treatment, selected or tested concentrations) is given as “did not induce any of the indicator genes”.

Source of the values: patent publication US20180251824A1, “IN VITRO GENOTOXICITY ASSAY USING A TRANSCRIPTOMIC BIOMARKER WITH DIRECT DIGITAL COUNTING” (GEORGETOWN UNIVERSITY, priority 2017, published 2018).
